These results are taken from ChEMBL document CHEMBL1152842, “Synthesis, Raman, FT-IR, NMR spectroscopic data and antimicrobial activity of mixed aza-oxo-thia macrocyclic compounds” (2009).

In brackets after ≈: the same amount, converted by molar mass.

The MIC is the smallest concentration in the dilution series that meets the test's criterion for growth inhibition. Lower therefore signals a more susceptible organism.

Common to all, as to assay type: functional
Assay [1] has as its system Staphylococcus aureus. Nature of the assay: Antibacterial activity against Staphylococcus aureus ATCC 6538 at 1 ug after 24 hrs by disk diffusion method. Conditions: ATCC 6538, 24 h, read-out: IZ.
In assay [2] the test system is Escherichia coli. Nature of the assay: Antibacterial activity against Escherichia coli ATCC 11230 at 1 ug after 24 hrs by disk diffusion method. The note with it: ATCC 11230, 24 h, read-out: IZ. A general note: In agar diffusion tests the substance spreads into inoculated agar from a disc or well.
Assay [3] has as its system Bacillus cereus. The assay can be described thus: Antibacterial activity against Bacillus cereus ATCC 7064 at 1 ug after 24 hrs by disk diffusion method. The note with it: ATCC 7064, 24 h, read-out: IZ.
Assay [4] concerns Proteus vulgaris. The assay can be described thus: Antibacterial activity against Proteus vulgaris ATCC 8427 at 1 ug after 24 hrs by disk diffusion method. The note with it: ATCC 8427, 24 h, read-out: IZ.
Assay [5] deals with Pseudomonas aeruginosa. Nature of the assay: Antibacterial activity against Pseudomonas aeruginosa ATCC 27853 at 1 ug after 24 hrs by disk diffusion method. Conditions: ATCC 27853, 24 h, read-out: IZ.
The subject of assay [6] is Mycolicibacterium smegmatis. The assay can be described thus: Antibacterial activity against Mycobacterium smegmatis CCM 2067 at 1 ug after 24 hrs by disk diffusion method. Conditions: CCM 2067, 24 h, read-out: IZ.
The subject of assay [7] is Listeria monocytogenes. Nature of the assay: Antibacterial activity against Listeria monocytogenes ATCC 15313 at 1 ug after 24 hrs by disk diffusion method. The note with it: ATCC 15313, 24 h, read-out: IZ.
Assay [8] deals with Micrococcus luteus. Nature of the assay: Antibacterial activity against Micrococcus luteus La 2971 at 1 ug after 24 hrs by disk diffusion method. Conditions: read-out: IZ.
Assay [9] deals with Klebsiella pneumoniae. Nature of the assay: Antibacterial activity against Klebsiella pneumoniae UC57 at 1 ug after 24 hrs by disk diffusion method. The note with it: read-out: IZ.
Assay [10] relates to Micrococcus luteus. The assay can be described thus: Antibacterial activity against Micrococcus luteus La 2971 after 24 hrs by twofold serial dilution method.
Assay [11] concerns Pseudomonas aeruginosa. Nature of the assay: Antibacterial activity against Pseudomonas aeruginosa ATCC 27853 after 24 hrs by twofold serial dilution method.
In assay [12] the test system is Listeria monocytogenes. Nature of the assay: Antibacterial activity against Listeria monocytogenes ATCC 15313 after 24 hrs by twofold serial dilution method.
For assay [13], the system named is Staphylococcus aureus. The assay can be described thus: Antibacterial activity against Staphylococcus aureus ATCC 6538 after 24 hrs by twofold serial dilution method.
Assay [14] relates to Proteus vulgaris. The assay can be described thus: Antibacterial activity against Proteus vulgaris ATCC 8427 after 24 hrs by twofold serial dilution method.
For assay [15], the system named is Mycolicibacterium smegmatis. Nature of the assay: Antibacterial activity against Mycobacterium smegmatis CCM 2067 after 24 hrs by twofold serial dilution method.
Assay [16] deals with Bacillus cereus. Nature of the assay: Antibacterial activity against Bacillus cereus ATCC 7064 after 24 hrs by twofold serial dilution method.
In assay [17] the test system is Klebsiella pneumoniae. The assay can be described thus: Antibacterial activity against Klebsiella pneumoniae UC57 after 24 hrs by twofold serial dilution method.
Assay [18] concerns Escherichia coli. The assay can be described thus: Antibacterial activity against Escherichia coli ATCC 11230 after 24 hrs by twofold serial dilution method.
For assay [19], the system named is Klebsiella pneumoniae. The assay can be described thus: Antibacterial activity against Klebsiella pneumoniae UC57 after 24 hrs by disk diffusion method.
For assay [20], the system named is Hanseniaspora guilliermondii. The assay can be described thus: Antifungal activity against Hanseniaspora guilliermondii DSM 3432 after 48 hrs by twofold serial dilution method. The note with it: DSM 3432, 48 h.
For assay [21], the system named is Pseudomonas aeruginosa. The assay can be described thus: Antibacterial activity against Pseudomonas aeruginosa ATCC 27853 after 24 hrs by disk diffusion method.
For assay [22], the system named is Rhodotorula mucilaginosa. The assay can be described thus: Antifungal activity against Rhodotorula rubra DSM 70403 after 72 hrs by disk diffusion method.
The test system of assay [23] is Candida albicans. Nature of the assay: Antifungal activity against Candida albicans ATCC 10231 after 72 hrs by disk diffusion method.
The test system of assay [24] is Debaryomyces hansenii. Nature of the assay: Antifungal activity against Debaryomyces hansenii DSM 70238 after 72 hrs by disk diffusion method.
For assay [25], the system named is Debaryomyces hansenii. The assay can be described thus: Antifungal activity against Debaryomyces hansenii DSM 70238 after 48 hrs by twofold serial dilution method. The note with it: DSM 70238, 48 h.
Assay [26] has as its system Rhodotorula mucilaginosa. Nature of the assay: Antifungal activity against Rhodotorula rubra DSM 70403 after 48 hrs by twofold serial dilution method. The note with it: DSM 70403, 48 h.
Assay [27] concerns Escherichia coli. The assay can be described thus: Antibacterial activity against Escherichia coli ATCC 11230 after 24 hrs by disk diffusion method.
For assay [28], the system named is Kluyveromyces marxianus. The assay can be described thus: Antifungal activity against Kluyveromyces fragilis NRRL 2415 after 72 hrs by disk diffusion method.
Assay [29] concerns Staphylococcus aureus. Nature of the assay: Antibacterial activity against Staphylococcus aureus ATCC 6538 after 24 hrs by disk diffusion method.
Assay [30] has as its system Kluyveromyces marxianus. The assay can be described thus: Antifungal activity against Kluyveromyces fragilis NRRL 2415 after 48 hrs by twofold serial dilution method. Conditions: NRRL 2415, 48 h.
Assay [31] relates to Listeria monocytogenes. Nature of the assay: Antibacterial activity against Listeria monocytogenes ATCC 15313 after 24 hrs by disk diffusion method.
Assay [32] deals with Hanseniaspora guilliermondii. Nature of the assay: Antifungal activity against Hanseniaspora guilliermondii DSM 3432 after 72 hrs by disk diffusion method.
The test system of assay [33] is Candida albicans. The assay can be described thus: Antifungal activity against Candida albicans ATCC 10231 after 48 hrs by twofold serial dilution method. The note with it: ATCC 10231, 48 h.
Assay [34] relates to Micrococcus luteus. The assay can be described thus: Antibacterial activity against Micrococcus luteus La 2971 after 24 hrs by disk diffusion method.
For assay [35], the system named is Bacillus cereus. The assay can be described thus: Antibacterial activity against Bacillus cereus ATCC 7064 after 24 hrs by disk diffusion method.
The subject of assay [36] is Proteus vulgaris. Nature of the assay: Antibacterial activity against Proteus vulgaris ATCC 8427 after 24 hrs by disk diffusion method.
The test system of assay [37] is Mycolicibacterium smegmatis. The assay can be described thus: Antibacterial activity against Mycobacterium smegmatis CCM 2067 after 24 hrs by disk diffusion method.

With `CC1(C)S[C@@H]2[C@H](NC(=O)[C@H](N)c3ccccc3)C(=O)N2[C@H]1C(=O)O` [AMPICILLIN], the zone of inhibition at 1 µg/disc was found to be 16 mm in [1]; 12 mm in assay [2]; 16 mm in assay [3]; 32 mm in [4]; 12 mm in [5]; 21 mm in assay [6]. Besides, the zone of inhibition at 1 µg/disc in assay [7] was 12 mm; in assay [8], 10 mm; in assay [9], 14 mm.

With GENTAMICIN, the MIC worked out at 6.25 µg/mL in assay [10]; 6.25 µg/mL in assay [11]; 12.5 µg/mL in assay [12]; 25 µg/mL in assay [13]; 25 µg/mL in assay [14]; 12.5 µg/mL in assay [15]. The MIC in assay [16], in [17] and in assay [18] was 6.25 µg/mL in each case.

Turning to `CO/N=C(\C(=O)N[C@@H]1C(=O)N2C(C(=O)O)=C(COC(C)=O)CS[C@H]12)c1csc(N)n1` [CEFOTAXIME], the zone of inhibition at 1 µg/disc in [1] was determined as 12 mm; in [2], 10 mm; in assay [3] it was 18 mm; in assay [4], 32 mm; in assay [5] it was 14 mm; in [6], 11 mm. Further, the zone of inhibition at 1 µg/disc in assay [7] came to 16 mm; in assay [8], 54 mm; in [9], 13 mm.

As to `O=C1CCSSCCC(=O)Nc2cccc(n2)NC(=O)CCSSCCC(=O)Nc2cccc(n2)N1`, the “inhibition zone (IZ)” value in [19] was determined as 17 mm; in [21], 17 mm; in assay [22], 22 mm; in assay [23] it was 22 mm; in assay [24] it was 22 mm; in assay [27], 16 mm. The “inhibition zone (IZ)” value in assay [28] stood at 22 mm; in assay [29], 15 mm; in [31], 15 mm; in [32] it was 22 mm; in assay [34] it was 15 mm; in assay [35], 15 mm. The “inhibition zone (IZ)” value in assay [36] came out at 11 mm; in assay [37], 10 mm. The MIC in assay [20] was 1.56 µg/mL (≈ 2.75 µM); in assay [10] it was 12.5 µg/mL (≈ 22.1 µM); in assay [11] (ATCC 27853, 24 h), 6.25 µg/mL (≈ 11 µM); in assay [12] (ATCC 15313, 24 h), 12.5 µg/mL (≈ 22.1 µM); in [13] (ATCC 6538, 24 h), 6.25 µg/mL (≈ 11 µM); in assay [14] (ATCC 8427, 24 h), 25 µg/mL (≈ 44.1 µM). The MIC in assay [25] was 1.56 µg/mL (≈ 2.75 µM); in assay [26], 1.56 µg/mL (≈ 2.75 µM); in assay [15] (CCM 2067, 24 h) it was 25 µg/mL (≈ 44.1 µM); in assay [16] (ATCC 7064, 24 h), 12.5 µg/mL (≈ 22.1 µM); in [17], 6.25 µg/mL (≈ 11 µM); in assay [18] (ATCC 11230, 24 h), 6.25 µg/mL (≈ 11 µM). Moreover, the MIC in assay [30] and in [33] was 1.56 µg/mL (≈ 2.75 µM) throughout.
